Data as given in PubChem BioAssay AID248 (DTP/NCI, 2004).
Several values for one entry are separate records, joined by “and”; a condition that tells them apart may be missing. Identical values can stand only once. Inconclusive results and toxic doses are left out.

System: L1210 leukemia ip in BDF1 mice, survival T/C
Test: NCI In Vivo Anticancer Drug Screen. Data for tumor model L1210 Leukemia (intraperitoneal) in B6D2F1 (BDF1) mice
Settings: endpoint: mean survival time, higher = longer survival
Outline: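 Transplanted-tumor mice were given test agent; controls received vehicle only. Survival readings from the two groups were divided (treated over control).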

[1] = dose: 25.0 mg/kg/injection, schedule: Q01DX009 (ip), vehicle: saline
[2] = dose: 50.0 mg/kg/injection, schedule: Q01DX009 (ip), vehicle: saline
[3] = dose: 200.0 mg/kg/injection, schedule: Q01DX001 (ip), vehicle: carboxymethylcellulose (CMC)
[4] = dose: 400.0 mg/kg/injection, schedule: Q01DX001 (ip), vehicle: carboxymethylcellulose (CMC)
[5] = dose: 100.0 mg/kg/injection, schedule: Q01DX009 (ip), vehicle: saline with Tween-80
[6] = dose: 100.0 mg/kg/injection, schedule: Q01DX009 (ip), vehicle: saline
[7] = dose: 100.0 mg/kg/injection, schedule: Q04DX003 (ip), vehicle: saline with Tween-80
[8] = dose: 100.0 mg/kg/injection, schedule: Q04DX003 (ip), vehicle: saline
[9] = dose: 200.0 mg/kg/injection, schedule: Q01DX009 (ip), vehicle: saline with Tween-80
[10] = dose: 200.0 mg/kg/injection, schedule: Q01DX009 (ip), vehicle: saline
[11] = dose: 200.0 mg/kg/injection, schedule: Q04DX003 (ip), vehicle: saline with Tween-80
[12] = dose: 200.0 mg/kg/injection, schedule: Q04DX003 (ip), vehicle: saline
[13] = dose: 400.0 mg/kg/injection, schedule: Q04DX003 (ip), vehicle: saline
[14] = dose: 100.0 mg/kg/injection, schedule: Q01DX001 (ip), vehicle: carboxymethylcellulose (CMC)

## Nc1ccc2c(c1)C(=O)c1c(F)cccc1-2
dose: 100.0 mg/kg/injection, schedule: Q04DX003 (ip), vehicle: acetone
  T/C: 98 % of control
dose: 200.0 mg/kg/injection, schedule: Q04DX003 (ip), vehicle: acetone
  T/C: 94 % of control
dose: 400.0 mg/kg/injection, schedule: Q04DX003 (ip), vehicle: acetone
  T/C: 91 % of control

## O=C(O)CCC(Nc1sc([N+](=O)[O-])cc1[N+](=O)[O-])C(=O)O (centres undefined)
dose: 100.0 mg/kg/injection, schedule: Q04DX002 (ip), vehicle: saline with Tween-80
  T/C: 95 % of control
dose: 200.0 mg/kg/injection, schedule: Q04DX002 (ip), vehicle: saline with Tween-80
  T/C: 106 % of control
dose: 400.0 mg/kg/injection, schedule: Q04DX002 (ip), vehicle: saline with Tween-80
  T/C: 92 % of control

## C[N+]1(C)CCCCC1
dose: 12.5 mg/kg/injection, schedule: Q01DX009 (ip), vehicle: saline
  T/C: 106 % of control
[1]
  T/C: 101 % of control
[2]
  T/C: 97 % of control
dose: 50.0 mg/kg/injection, schedule: Q04DX003 (ip), vehicle: saline
  T/C: 101 % of control

## Nc1sc(C(=O)O)cc1[N+](=O)[O-]
[3]
  T/C: 92 % of control
[4]
  T/C: 92 % of control

## Oc1ccccc1C=Nc1ccccc1O
dose: 33.0 mg/kg/injection, schedule: Q04DX002 (ip), vehicle: gum acacia
  T/C: 103 % of control
dose: 50.0 mg/kg/injection, schedule: Q04DX002 (ip), vehicle: gum acacia
  T/C: 100 % of control
dose: 75.0 mg/kg/injection, schedule: Q04DX002 (ip), vehicle: gum acacia
  T/C: 100 % of control
dose: 100.0 mg/kg/injection, schedule: Q01DX009 (ip), vehicle: gum acacia
  T/C: 89 % of control
dose: 100.0 mg/kg/injection, schedule: Q04DX002 (ip), vehicle: gum acacia
  T/C: 104 % of control
dose: 200.0 mg/kg/injection, schedule: Q01DX009 (ip), vehicle: gum acacia
  T/C: 105 % of control
dose: 200.0 mg/kg/injection, schedule: Q04DX002 (ip), vehicle: gum acacia
  T/C: 107 % of control
dose: 400.0 mg/kg/injection, schedule: Q01DX009 (ip), vehicle: gum acacia
  T/C: 89 % of control

## OC1OC(COC(c2ccccc2)(c2ccccc2)c2ccccc2)C(O)C(O)C1O (centres undefined)
[2]
  T/C: 95 % of control
[5]
  T/C: 100 % of control and 102 % of control
[6]
  T/C: 98 % of control
[7]
  T/C: 102 % of control
[8]
  T/C: 102 % of control
dose: 100.0 mg/kg/injection, schedule: Q04DX003 (ip), vehicle: water
  T/C: 105 % of control
[9]
  T/C: 95 % of control and 96 % of control
[10]
  T/C: 95 % of control
[11]
  T/C: 96 % of control
[12]
  T/C: 93 % of control
dose: 200.0 mg/kg/injection, schedule: Q04DX003 (ip), vehicle: water
  T/C: 97 % of control
dose: 400.0 mg/kg/injection, schedule: Q01DX009 (ip), vehicle: saline with Tween-80
  T/C: 104 % of control
dose: 400.0 mg/kg/injection, schedule: Q04DX003 (ip), vehicle: saline with Tween-80
  T/C: 94 % of control
dose: 400.0 mg/kg/injection, schedule: Q04DX003 (ip), vehicle: water
  T/C: 96 % of control

## O=C(NC(CS(=O)(=O)O)C(=O)O)OCc1ccccc1 (centres undefined)
dose: 100.0 mg/kg/injection, schedule: Q01DX001 (ip), vehicle: Klucel (hydroxypropylcellulose) (HPC)
  T/C: 93 % of control
dose: 100.0 mg/kg/injection, schedule: Q04DX003 (ip), vehicle: Klucel (hydroxypropylcellulose) (HPC)
  T/C: 93 % of control
dose: 200.0 mg/kg/injection, schedule: Q01DX001 (ip), vehicle: Klucel (hydroxypropylcellulose) (HPC)
  T/C: 97 % of control
dose: 200.0 mg/kg/injection, schedule: Q04DX003 (ip), vehicle: Klucel (hydroxypropylcellulose) (HPC)
  T/C: 95 % of control
dose: 400.0 mg/kg/injection, schedule: Q01DX001 (ip), vehicle: Klucel (hydroxypropylcellulose) (HPC)
  T/C: 91 % of control

## Cc1cccc(CSc2nc(N)nc3c2ncn3C2CC(O)C(CO)O2)n1 (centres undefined)
dose: 100.0 mg/kg/injection, schedule: Q01DX005 (ip), vehicle: saline
  T/C: 104 % of control
[6]
  T/C: 113 % of control
dose: 200.0 mg/kg/injection, schedule: Q01DX005 (ip), vehicle: saline
  T/C: 107 % of control
dose: 600.0 mg/kg/injection, schedule: Q01DX009 (ip), vehicle: saline
  T/C: 153 % of control

## O=C1CCC(CC2CCCCC2)CC1
[7]
  T/C: 100 % of control
[11]
  T/C: 95 % of control

## CC(=O)OCC1OC(n2cc(C(F)(F)F)c(=O)[nH]c2=O)CC1OC(C)=O (centres undefined)
dose: 20.0 mg/kg/injection, schedule: Q01DX009 (oral), vehicle: saline
  T/C: 116 % of control
dose: 20.0 mg/kg/injection, schedule: Q01DX011 (ip), vehicle: saline
  T/C: 116 % of control
dose: 40.0 mg/kg/injection, schedule: Q01DX009 (oral), vehicle: saline
  T/C: 116 % of control
dose: 40.0 mg/kg/injection, schedule: Q01DX011 (ip), vehicle: saline
  T/C: 118 % of control
dose: 45.0 mg/kg/injection, schedule: Q01DX Z (oral), vehicle: saline
  T/C: 105 % of control
dose: 65.0 mg/kg/injection, schedule: Q01DX Z (oral), vehicle: saline
  T/C: 87 % of control
dose: 80.0 mg/kg/injection, schedule: Q01DX009 (oral), vehicle: saline
  T/C: 118 % of control
dose: 80.0 mg/kg/injection, schedule: Q01DX011 (ip), vehicle: saline
  T/C: 122 % of control
dose: 100.0 mg/kg/injection, schedule: Q01DX Z (oral), vehicle: saline
  T/C: 109 % of control
dose: 150.0 mg/kg/injection, schedule: Q01DX011 (oral), vehicle: saline
  T/C: 168 % of control
dose: 160.0 mg/kg/injection, schedule: Q01DX009 (oral), vehicle: saline
  T/C: 155 % of control
dose: 160.0 mg/kg/injection, schedule: Q01DX011 (ip), vehicle: saline
  T/C: 159 % of control
dose: 300.0 mg/kg/injection, schedule: Q01DX011 (oral), vehicle: saline
  T/C: 153 % of control
dose: 480.0 mg/kg/injection, schedule: Q01DX Z (ip), vehicle: saline
  T/C: 115 % of control

## CCC[N+](CCC)(CCC)Cc1ccccc1
dose: 5.0 mg/kg/injection, schedule: Q01DX001 (ip), vehicle: saline
  T/C: 108 % of control
dose: 10.0 mg/kg/injection, schedule: Q01DX001 (ip), vehicle: saline
  T/C: 98 % of control
dose: 20.0 mg/kg/injection, schedule: Q01DX001 (ip), vehicle: saline
  T/C: 96 % of control

## N#CC1CS(=O)(=O)C1
[6]
  T/C: 108 % of control
[8]
  T/C: 106 % of control
[10]
  T/C: 103 % of control
[12]
  T/C: 101 % of control
[13]
  T/C: 102 % of control

## COC(=O)C1=CCCCC(N2CCOCC2)=C1C(=O)OC
dose: 100.0 mg/kg/injection, schedule: Q01DX001 (ip), vehicle: saline
  T/C: 97 % of control
dose: 200.0 mg/kg/injection, schedule: Q01DX001 (ip), vehicle: saline
  T/C: 101 % of control
dose: 400.0 mg/kg/injection, schedule: Q01DX001 (ip), vehicle: saline
  T/C: 103 % of control

## Cc1nc2ccccc2[nH]1
dose: 25.0 mg/kg/injection, schedule: Q04DX002 (ip), vehicle: Klucel (hydroxypropylcellulose) (HPC)
  T/C: 109 % of control
dose: 50.0 mg/kg/injection, schedule: Q04DX002 (ip), vehicle: Klucel (hydroxypropylcellulose) (HPC)
  T/C: 105 % of control
dose: 100.0 mg/kg/injection, schedule: Q04DX002 (ip), vehicle: Klucel (hydroxypropylcellulose) (HPC)
  T/C: 105 % of control

## CCOC(=O)NC(CI)c1ccccc1 (centres undefined)
dose: 50.0 mg/kg/injection, schedule: Q01DX009 (ip), vehicle: saline with Tween-80
  T/C: 96 % of control
[5]
  T/C: 88 % of control
[9]
  T/C: 96 % of control

## Cc1ccc(C(=O)OCC2OC3OC(C)(C)OC3C2OC(=O)c2ccc(C)cc2)cc1 (centres undefined)
[14]
  T/C: 90 % of control
[3]
  T/C: 104 % of control
[4]
  T/C: 101 % of control

## O=c1cccc[nH]1
[1]
  T/C: 100 % of control
dose: 45.0 mg/kg/injection, schedule: Q01DX009 (ip), vehicle: saline
  T/C: 91 % of control
[2]
  T/C: 106 % of control and 93 % of control
dose: 65.0 mg/kg/injection, schedule: Q01DX009 (ip), vehicle: saline
  T/C: 104 % of control
[6]
  T/C: 96 % of control and 110 % of control and 91 % of control
dose: 100.0 mg/kg/injection, schedule: Q04DX002 (ip), vehicle: saline
  T/C: 95 % of control
[8]
  T/C: 91 % of control
dose: 150.0 mg/kg/injection, schedule: Q01DX009 (ip), vehicle: saline
  T/C: 102 % of control
[10]
  T/C: 109 % of control and 110 % of control
dose: 200.0 mg/kg/injection, schedule: Q04DX002 (ip), vehicle: saline
  T/C: 100 % of control
[12]
  T/C: 91 % of control
[13]
  T/C: 92 % of control

## CCCCCc1cc(O)c2c3c(c(=O)oc2c1)CCC(=O)C3
[14]
  T/C: 97 % of control
[3]
  T/C: 100 % of control
[4]
  T/C: 97 % of control
